Results published in PubChem BioAssay (NCI).
“And” between values parts separate entries of the source, which are not always exact repeats. Equal values may be shown once.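 Tested at 5 concentrations; 48 h exposure; 96-well plates; endpoints linearly interpolated, else capped at highest concentration. Abbreviation: GI50, concentration required for 50% inhibition of growth. TGI denotes the concentration required for complete inhibition of growth.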

Assays:
Test in all cases: DTP human tumour cell line panel, 48 h
CCRF-CEM leukemia = test system: CCRF-CEM leukemia
DU-145 prostate = test system: DU-145 prostate
HOP-62 NSCLC = test system: HOP-62 NSCLC
NCI-H23 lung = test system: NCI-H23 lung
NCI-H460 lung = test system: NCI-H460 lung
OVCAR-3 ovarian = test system: OVCAR-3 ovarian
SK-MEL-28 melanoma = test system: SK-MEL-28 melanoma
SNB-19 CNS = test system: SNB-19 CNS
SNB-75 CNS = test system: SNB-75 CNS
SW-620 colon = test system: SW-620 colon

## C=C1C(=O)C23CC1CCC2C12CO[C@@]3(O)[C@@H](O)C1C(C)(C)C=CC2=O (some centres undefined)
CCRF-CEM leukemia
  GI50: 759 nM
DU-145 prostate
  TGI: 41.3 µM
HOP-62 NSCLC
  GI50: 25200 nM
  TGI: 14.4 µM and 67.2 µM
NCI-H23 lung
  GI50: 2900 nM
  TGI: 1.42 µM and 7.88 µM
NCI-H460 lung
  GI50: 14700 nM
OVCAR-3 ovarian
  TGI: 2.75 µM
SK-MEL-28 melanoma
  GI50: 1580 nM
  TGI: 1.48 µM and 3.35 µM
SNB-19 CNS
  GI50: 20.4 µM
SNB-75 CNS
  GI50: 13600 nM
  TGI: 12.7 µM and 26.4 µM
SW-620 colon
  TGI: 10.2 µM

## N=C(N)SCC(=O)O
CCRF-CEM leukemia
  TGI: > 100 µM
DU-145 prostate
  TGI: > 100 µM
HOP-62 NSCLC
  TGI: > 100 µM
NCI-H23 lung
  TGI: > 100 µM
NCI-H460 lung
  TGI: > 100 µM
OVCAR-3 ovarian
  TGI: > 100 µM
SK-MEL-28 melanoma
  TGI: > 100 µM
SNB-19 CNS
  TGI: > 100 µM
SNB-75 CNS
  TGI: > 100 µM
SW-620 colon
  TGI: > 100 µM

## CC(C)(C)OC(=O)n1c(Cl)c(C(=O)N=C=S)c2ccccc21
CCRF-CEM leukemia
  GI50: 35500 nM
  TGI: > 100 µM
DU-145 prostate
  GI50: 36 µM
  TGI: > 100 µM
HOP-62 NSCLC
  GI50: > 100000 nM
  TGI: > 100 µM
NCI-H23 lung
  GI50: 28400 nM
  TGI: > 100 µM
NCI-H460 lung
  GI50: 39600 nM
  TGI: > 100 µM
OVCAR-3 ovarian
  GI50: 25.6 µM
  TGI: 72.9 µM
SK-MEL-28 melanoma
  GI50: 80700 nM
  TGI: > 100 µM
SNB-19 CNS
  GI50: 44.4 µM
  TGI: > 100 µM
SNB-75 CNS
  GI50: > 100000 nM
  TGI: > 100 µM
SW-620 colon
  GI50: 35400 nM
  TGI: > 100 µM

## Cc1cc(C(=O)Nc2cc(Nc3ncccc3-c3ncnc4nc[nH]c34)ccc2F)cc(C(C)(C)C#N)c1
CCRF-CEM leukemia
  GI50: 3470 nM
  TGI: > 100 µM
DU-145 prostate
  GI50: 6.2 µM
  TGI: > 100 µM
HOP-62 NSCLC
  GI50: 461 nM
  TGI: > 100 µM
NCI-H23 lung
  GI50: 379 nM
  TGI: > 100 µM
NCI-H460 lung
  GI50: 1980 nM
  TGI: > 100 µM
OVCAR-3 ovarian
  GI50: 5.99 µM
  TGI: > 100 µM
SK-MEL-28 melanoma
  GI50: 40.2 nM
  TGI: > 100 µM
SNB-19 CNS
  GI50: 4.31 µM
  TGI: > 100 µM
SNB-75 CNS
  GI50: 8920 nM
  TGI: > 100 µM
SW-620 colon
  GI50: 649 nM
  TGI: > 100 µM

## COc1cc(/C=C2\C(=O)Nc3ccc(Br)cc32)cc(OC)c1OC
CCRF-CEM leukemia
  GI50: 4820 nM
  TGI: > 100 µM
DU-145 prostate
  GI50: 18.7 µM
  TGI: > 100 µM
HOP-62 NSCLC
  GI50: 20300 nM
  TGI: 81.4 µM
NCI-H23 lung
  GI50: 8070 nM
  TGI: 66 µM
NCI-H460 lung
  GI50: 8760 nM
  TGI: > 100 µM
OVCAR-3 ovarian
  GI50: 5.59 µM
  TGI: > 56.9 µM
SK-MEL-28 melanoma
  GI50: 58900 nM
  TGI: > 100 µM
SNB-19 CNS
  GI50: 29.8 µM
  TGI: > 100 µM
SNB-75 CNS
  GI50: 4010 nM
  TGI: 14.5 µM
SW-620 colon
  GI50: 3740 nM
  TGI: > 100 µM

## N#CC1=C(N)Oc2c(sc3c(Br)cccc23)C1c1ccc(F)cc1 (centres undefined)
CCRF-CEM leukemia
  GI50: 381 nM
  TGI: 13 µM
DU-145 prostate
  GI50: 0.333 µM
  TGI: 10.6 µM
HOP-62 NSCLC
  GI50: 354 nM
  TGI: 17.9 µM
NCI-H23 lung
  GI50: 416 nM
  TGI: 17.9 µM
NCI-H460 lung
  GI50: 376 nM
  TGI: 14.6 µM
OVCAR-3 ovarian
  GI50: 0.265 µM
  TGI: 0.917 µM
SK-MEL-28 melanoma
  GI50: 1610 nM
  TGI: 28.2 µM
SNB-19 CNS
  GI50: 0.719 µM
  TGI: 25 µM
SNB-75 CNS
  GI50: 327 nM
  TGI: 18.9 µM
SW-620 colon
  GI50: 476 nM
  TGI: 34.6 µM

## COc1ccc2nc3cc(Cl)ccc3c(Nc3ccc(O)c(CN4CCCC4)c3)c2c1
CCRF-CEM leukemia
  GI50: 3060 nM
  TGI: 14.6 µM
DU-145 prostate
  GI50: 2.16 µM
  TGI: 4.77 µM
HOP-62 NSCLC
  GI50: 2140 nM
  TGI: 5.34 µM
NCI-H23 lung
  GI50: 2220 nM
  TGI: 7.08 µM
NCI-H460 lung
  GI50: 2460 nM
  TGI: 6.15 µM
OVCAR-3 ovarian
  GI50: 3.54 µM
  TGI: 15 µM
SK-MEL-28 melanoma
  GI50: 1980 nM
  TGI: 3.46 µM
SNB-19 CNS
  GI50: 2.99 µM
  TGI: 13.9 µM
SNB-75 CNS
  GI50: 1990 nM
  TGI: 3.79 µM
SW-620 colon
  GI50: 1940 nM
  TGI: 6.19 µM

## C#CCn1cc(C=C2C(=O)NC(=S)NC2=O)c2cc(Cl)ccc21
CCRF-CEM leukemia
  GI50: 2320 nM
  TGI: 6.45 µM
DU-145 prostate
  GI50: 1.72 µM
  TGI: 3.22 µM
HOP-62 NSCLC
  GI50: 2640 nM
  TGI: 8.98 µM
NCI-H23 lung
  GI50: 2180 nM
  TGI: 5.26 µM
NCI-H460 lung
  GI50: 2290 nM
  TGI: 5.12 µM
OVCAR-3 ovarian
  GI50: 1.64 µM
  TGI: 3 µM
SK-MEL-28 melanoma
  GI50: 2330 nM
  TGI: 5.56 µM
SNB-19 CNS
  GI50: 1.72 µM
  TGI: 3.16 µM
SNB-75 CNS
  GI50: 1370 nM
  TGI: 3.67 µM
SW-620 colon
  GI50: 1790 nM
  TGI: 3.45 µM

## COc1cccc(C2CC(=O)Nc3cc4c(cc32)CCC4)c1OC (centres undefined)
CCRF-CEM leukemia
  GI50: 2280 nM
  TGI: 7.08 µM
DU-145 prostate
  GI50: 3.48 µM
  TGI: 16.1 µM
HOP-62 NSCLC
  GI50: 5970 nM
  TGI: > 46.8 µM
NCI-H23 lung
  GI50: 3400 nM
  TGI: 26.1 µM
NCI-H460 lung
  GI50: 3160 nM
  TGI: 12.3 µM
OVCAR-3 ovarian
  GI50: 2.37 µM
  TGI: 5.9 µM
SK-MEL-28 melanoma
  GI50: 5330 nM
  TGI: 28.3 µM
SNB-19 CNS
  GI50: 8.66 µM
  TGI: > 100 µM
SNB-75 CNS
  GI50: 2310 nM
  TGI: 11.9 µM
SW-620 colon
  GI50: 3110 nM
  TGI: > 46.2 µM
